One assay deals with FASN enzyme (Homo sapiens, UniProt P49327). Briefly: Enzymatic Assay for FASN Inhibitors. It counts as biochemical.
FASN enzyme, sequence (P49327 whole entry): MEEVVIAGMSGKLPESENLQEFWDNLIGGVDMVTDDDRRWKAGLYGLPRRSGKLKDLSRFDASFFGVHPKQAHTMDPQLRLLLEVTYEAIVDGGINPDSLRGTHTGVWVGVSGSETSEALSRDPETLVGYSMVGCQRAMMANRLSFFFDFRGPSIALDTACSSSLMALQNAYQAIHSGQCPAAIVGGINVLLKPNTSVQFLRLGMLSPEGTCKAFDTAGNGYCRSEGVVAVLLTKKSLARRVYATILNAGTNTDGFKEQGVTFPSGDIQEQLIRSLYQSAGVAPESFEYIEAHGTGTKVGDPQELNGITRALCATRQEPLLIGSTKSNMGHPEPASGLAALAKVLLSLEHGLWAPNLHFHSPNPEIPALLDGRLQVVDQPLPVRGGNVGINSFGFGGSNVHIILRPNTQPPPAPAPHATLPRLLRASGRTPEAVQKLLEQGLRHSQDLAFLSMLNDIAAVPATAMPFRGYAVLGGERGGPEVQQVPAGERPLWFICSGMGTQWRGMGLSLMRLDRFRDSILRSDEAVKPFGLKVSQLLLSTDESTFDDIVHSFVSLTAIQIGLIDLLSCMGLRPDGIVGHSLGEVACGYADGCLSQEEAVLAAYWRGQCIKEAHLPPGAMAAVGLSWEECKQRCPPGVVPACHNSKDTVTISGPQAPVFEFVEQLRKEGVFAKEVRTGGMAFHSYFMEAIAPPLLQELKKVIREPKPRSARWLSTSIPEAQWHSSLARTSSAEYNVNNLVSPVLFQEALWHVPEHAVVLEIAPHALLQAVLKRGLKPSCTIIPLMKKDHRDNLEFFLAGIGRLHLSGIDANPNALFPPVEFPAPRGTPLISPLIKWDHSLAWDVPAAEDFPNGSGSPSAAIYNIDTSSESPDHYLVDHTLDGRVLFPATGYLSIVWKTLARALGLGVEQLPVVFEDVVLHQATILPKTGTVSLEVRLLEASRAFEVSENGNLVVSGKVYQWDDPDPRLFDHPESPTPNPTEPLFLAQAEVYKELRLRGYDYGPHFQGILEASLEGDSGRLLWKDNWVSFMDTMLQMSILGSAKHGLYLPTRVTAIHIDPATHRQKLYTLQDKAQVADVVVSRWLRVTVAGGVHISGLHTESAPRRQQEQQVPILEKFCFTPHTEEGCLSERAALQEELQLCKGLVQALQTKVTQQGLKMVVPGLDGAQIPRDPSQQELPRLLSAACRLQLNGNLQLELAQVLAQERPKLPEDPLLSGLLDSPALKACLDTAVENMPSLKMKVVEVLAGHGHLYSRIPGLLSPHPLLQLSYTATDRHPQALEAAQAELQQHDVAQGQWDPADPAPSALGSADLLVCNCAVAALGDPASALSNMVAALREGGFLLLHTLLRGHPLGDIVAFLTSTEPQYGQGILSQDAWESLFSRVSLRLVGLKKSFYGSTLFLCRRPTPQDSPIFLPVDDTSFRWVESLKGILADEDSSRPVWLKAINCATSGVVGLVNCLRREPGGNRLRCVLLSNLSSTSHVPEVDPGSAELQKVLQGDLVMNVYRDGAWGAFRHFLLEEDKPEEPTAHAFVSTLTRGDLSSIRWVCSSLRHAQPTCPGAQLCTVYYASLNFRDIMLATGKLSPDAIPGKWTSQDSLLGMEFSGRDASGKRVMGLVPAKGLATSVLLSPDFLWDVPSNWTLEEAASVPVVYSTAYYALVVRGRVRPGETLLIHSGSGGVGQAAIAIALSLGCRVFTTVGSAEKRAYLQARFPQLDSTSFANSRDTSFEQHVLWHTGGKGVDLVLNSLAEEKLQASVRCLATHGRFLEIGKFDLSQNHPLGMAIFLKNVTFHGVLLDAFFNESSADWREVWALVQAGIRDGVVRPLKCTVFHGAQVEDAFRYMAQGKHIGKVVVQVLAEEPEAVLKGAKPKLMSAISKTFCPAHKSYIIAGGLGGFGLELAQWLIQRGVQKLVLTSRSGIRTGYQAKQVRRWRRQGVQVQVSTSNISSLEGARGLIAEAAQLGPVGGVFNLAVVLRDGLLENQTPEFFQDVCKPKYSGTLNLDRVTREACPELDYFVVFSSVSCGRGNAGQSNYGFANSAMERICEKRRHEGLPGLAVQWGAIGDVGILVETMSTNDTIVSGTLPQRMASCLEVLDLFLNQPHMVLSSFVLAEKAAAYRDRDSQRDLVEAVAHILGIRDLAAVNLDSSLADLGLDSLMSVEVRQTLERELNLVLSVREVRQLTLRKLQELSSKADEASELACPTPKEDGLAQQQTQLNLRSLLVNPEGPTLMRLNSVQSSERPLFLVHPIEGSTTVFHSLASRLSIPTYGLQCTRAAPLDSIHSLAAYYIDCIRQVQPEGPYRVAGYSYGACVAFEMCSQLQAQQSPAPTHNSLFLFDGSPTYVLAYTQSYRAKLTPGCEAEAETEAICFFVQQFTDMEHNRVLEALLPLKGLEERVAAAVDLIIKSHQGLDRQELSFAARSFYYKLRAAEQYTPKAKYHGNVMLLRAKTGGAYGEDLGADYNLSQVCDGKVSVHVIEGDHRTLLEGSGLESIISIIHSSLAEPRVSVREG
Details: not given
The essentials:
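40 nM FASN preincubated with compound 60 min at 25° C in HEPES pH 7.3 buffer with 0.04% Triton X-100. Then 20 μM acetyl-CoA, 60 μM malonyl-CoA and 100 μM NADPH added for 90 min, quenched with CPM thiol probe; fluorescence 360/530 nm, IC50 by four-parameter fit.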
What is called IC50 is the midpoint of a concentration-inhibition curve. For `O=C(c1ccc(-c2cccc(Cl)c2Cl)cc1)N1CCN(C(=O)C2(O)CC2)CC1` [1-[(4-{[4-(2,3-dichlorophenyl)phenyl]carbonyl}piperazin-1-yl)carbonyl]cyclopropan-1-ol], the IC50 is < 0.5 µM.
Regarding `O=C(c1ccc(-c2cc(Cl)ccc2Cl)cc1)N1CCN(C(=O)C2(O)CC2)CC1` [1-[(4-{[4-(2,5-dichlorophenyl)phenyl]carbonyl}piperazin-1-yl)carbonyl]cyclopropan-1-ol], the IC50 was < 0.5 µM.
On the same count and under the same terms, next, `O=C(c1ccc(-c2ccc(F)cc2Cl)cc1)N1CCN(C(=O)C2(O)CC2)CC1` [1-[(4-{[4-(2-chloro-4-fluorophenyl)phenyl]carbonyl}piperazin-1-yl)carbonyl]cyclopropan-1-ol]: < 0.5 µM.
On the same count and under the same terms, next, `O=C(c1ccc(-c2ccc(Cl)c(Cl)c2)cc1)N1CCN(C(=O)C2(O)CC2)CC1` [1-[(4-{[4-(3,4-dichlorophenyl)phenyl]carbonyl}piperazin-1-yl)carbonyl]cyclopropan-1-ol]: < 0.5 µM; `O=C(c1ccc(-c2cccc(Cl)c2)cc1)N1CCN(C(=O)C2(O)CC2)CC1` [1-[(4-{[4-(3-chlorophenyl)phenyl]carbonyl}piperazin-1-yl)carbonyl]cyclopropan-1-ol]: < 0.5 µM.
Same read-out and setting: then `COc1cc(Cl)ccc1-c1ccc(C(=O)N2CCN(C(=O)C3(O)CC3)CC2)cc1` [1-[(4-{[4-(4-chloro-2-methoxyphenyl)phenyl]carbonyl}piperazin-1-yl)carbonyl]cyclopropan-1-ol], with < 0.5 µM; and `O=C(c1ccc(-c2ccc(Cl)c(F)c2)cc1)N1CCN(C(=O)C2(O)CC2)CC1` [1-[(4-{[4-(4-chloro-3-fluorophenyl)phenyl]carbonyl}piperazin-1-yl)carbonyl]cyclopropan-1-ol], with < 0.5 µM.
With `O=C(c1ccc(-c2nc3cc(Cl)ccc3[nH]2)cc1)N1CCN(C(=O)C2(O)CC2)CC1` [1-[(4-{[4-(5-chloro-1H-1,3-benzodiazol-2-yl)phenyl]carbonyl}piperazin-1-yl)carbonyl]cyclopropan-1-ol], the IC50 was < 0.5 µM.
Turning to `O=C(c1ccc(-c2ccc3cc(F)ccc3n2)cc1)N1CCN(C(=O)C2(O)CC2)CC1` [1-[(4-{[4-(6-fluoroquinolin-2-yl)phenyl]carbonyl}piperazin-1-yl)carbonyl]cyclopropan-1-ol], the IC50 is < 0.5 µM.
Still for that read-out and setting: next, `O=C(c1ccc(-c2cnc3ccccc3c2)cc1)N1CCN(C(=O)C2(O)CC2)CC1` [1-[(4-{[4-(quinolin-3-yl)phenyl]carbonyl}piperazin-1-yl)carbonyl]cyclopropan-1-ol]: < 0.5 µM.

The same assay, now with this note: FASN enzymatic assay; Table 2-2.
For the compound `O=C(c1ccc(-c2ccc3nonc3c2)cc1)N1CCN(C(=O)C2(O)CC2)CC1` [1-[(4-{[4-(2,1,3-benzoxadiazol-5-yl)phenyl]carbonyl}piperazin-1-yl)carbonyl]cyclopropan-1-ol], the IC50 lay within 0.5 to 5 µM.
`COc1cccc(-c2ccc(C(=O)N3CCN(C(=O)C4(O)CC4)CC3)cc2)c1F` [1-[(4-{[4-(2-fluoro-3-methoxyphenyl)phenyl]carbonyl}piperazin-1-yl)carbonyl]cyclopropan-1-ol] displayed an IC50 of 0.5 to 5 µM.
Still for that read-out and setting: next, `Cc1cccc(-c2ccc(C(=O)N3CCN(C(=O)C4(O)CC4)CC3)cc2)c1F` [1-[(4-{[4-(2-fluoro-3-methylphenyl)phenyl]carbonyl}piperazin-1-yl)carbonyl]cyclopropan-1-ol]: 0.5 to 5 µM; `COc1ccc(-c2ccc(C(=O)N3CCN(C(=O)C4(O)CC4)CC3)cc2)c(F)c1` [1-[(4-{[4-(2-fluoro-4-methoxyphenyl)phenyl]carbonyl}piperazin-1-yl)carbonyl]cyclopropan-1-ol]: 0.5 to 5 µM; `Cc1ccc(F)c(-c2ccc(C(=O)N3CCN(C(=O)C4(O)CC4)CC3)cc2)c1` [1-[(4-{[4-(2-fluoro-5-methylphenyl)phenyl]carbonyl}piperazin-1-yl)carbonyl]cyclopropan-1-ol]: 0.5 to 5 µM.
Same read-out and setting: then `Cc1ccc(-c2ccc(C(=O)N3CCN(C(=O)C4(O)CC4)CC3)cc2)cc1F` [1-[(4-{[4-(3-fluoro-4-methylphenyl)phenyl]carbonyl}piperazin-1-yl)carbonyl]cyclopropan-1-ol], with 0.5 to 5 µM; and `Cc1noc2cc(-c3ccc(C(=O)N4CCN(C(=O)C5(O)CC5)CC4)cc3)ccc12` [1-[(4-{[4-(3-methyl-1,2-benzoxazol-6-yl)phenyl]carbonyl}piperazin-1-yl)carbonyl]cyclopropan-1-ol], with 0.5 to 5 µM; and `O=C(c1ccc(-c2nc3c(Cl)cccc3[nH]2)cc1)N1CCN(C(=O)C2(O)CC2)CC1` [1-[(4-{[4-(4-chloro-1H-1,3-benzodiazol-2-yl)phenyl]carbonyl}piperazin-1-yl)carbonyl]cyclopropan-1-ol], with 0.5 to 5 µM.
The compound `O=C(c1ccc(-c2nc3cc(F)c(F)cc3[nH]2)cc1)N1CCN(C(=O)C2(O)CC2)CC1` [1-[(4-{[4-(5,6-difluoro-1H-1,3-benzodiazol-2-yl)phenyl]carbonyl}piperazin-1-yl)carbonyl]cyclopropan-1-ol] gave an IC50 of 0.5 to 5 µM.
In turn, `O=C(c1ccc(-c2nc3cc(F)ccc3[nH]2)cc1)N1CCN(C(=O)C2(O)CC2)CC1` [1-[(4-{[4-(5-fluoro-1H-1,3-benzodiazol-2-yl)phenyl]carbonyl}piperazin-1-yl)carbonyl]cyclopropan-1-ol] registered an IC50 of 0.5 to 5 µM.
The same measure, in the same setting: next, `COc1ccc2[nH]c(-c3ccc(C(=O)N4CCN(C(=O)C5(O)CC5)CC4)cc3)nc2c1` [1-[(4-{[4-(5-methoxy-1H-1,3-benzodiazol-2-yl)phenyl]carbonyl}piperazin-1-yl)carbonyl]cyclopropan-1-ol]: 0.5 to 5 µM; `O=C(c1ccc(-c2ccc3ncccc3c2)cc1C(F)(F)F)N1CCN(C(=O)C2(O)CC2)CC1` [1-[(4-{[4-(quinolin-6-yl)-2-(trifluoromethyl)phenyl]carbonyl}piperazin-1-yl)carbonyl]cyclopropan-1-ol]: 0.5 to 5 µM.

The same assay, now with this note: FASN enzymatic assay; Table 2-3.
As for `O=C(c1ccc(-c2cccc(F)c2F)cc1)N1CCN(C(=O)C2(O)CC2)CC1` [1-[(4-{[4-(2,3-difluorophenyl)phenyl]carbonyl}piperazin-1-yl)carbonyl]cyclopropan-1-ol], the IC50 was ≥ 5 µM.
On the same count and under the same terms, next, `COc1c(Cl)ccc(-c2ccc(C(=O)N3CCN(C(=O)C4(O)CC4)CC3)cc2)c1Cl` [1-[(4-{[4-(2,4-dichloro-3-methoxyphenyl)phenyl]carbonyl}piperazin-1-yl)carbonyl]cyclopropan-1-ol]: ≥ 5 µM; `O=C(c1ccc(-c2cc(F)ccc2F)cc1)N1CCN(C(=O)C2(O)CC2)CC1` [1-[(4-{[4-(2,5-difluorophenyl)phenyl]carbonyl}piperazin-1-yl)carbonyl]cyclopropan-1-ol]: ≥ 5 µM; `COc1ccc(-c2ccc(C(=O)N3CCN(C(=O)C4(O)CC4)CC3)cc2)c(OC)n1` [1-[(4-{[4-(2,6-dimethoxypyridin-3-yl)phenyl]carbonyl}piperazin-1-yl)carbonyl]cyclopropan-1-ol]: ≥ 5 µM.
The same measure, in the same setting: next, `COc1ccc(-c2ccc(C(=O)N3CCN(C(=O)C4(O)CC4)CC3)cc2)c(Cl)c1` [1-[(4-{[4-(2-chloro-4-methoxyphenyl)phenyl]carbonyl}piperazin-1-yl)carbonyl]cyclopropan-1-ol]: ≥ 5 µM; `O=C(c1ccc(-c2cc(F)ccc2Cl)cc1)N1CCN(C(=O)C2(O)CC2)CC1` [1-[(4-{[4-(2-chloro-5-fluorophenyl)phenyl]carbonyl}piperazin-1-yl)carbonyl]cyclopropan-1-ol]: ≥ 5 µM.
On the same count and under the same terms, then `Cc1ccc(-c2ccc(C(=O)N3CCN(C(=O)C4(O)CC4)CC3)cc2)c(F)c1` [1-[(4-{[4-(2-fluoro-4-methylphenyl)phenyl]carbonyl}piperazin-1-yl)carbonyl]cyclopropan-1-ol], with ≥ 5 µM; and `COc1ccc(F)c(-c2ccc(C(=O)N3CCN(C(=O)C4(O)CC4)CC3)cc2)c1` [1-[(4-{[4-(2-fluoro-5-methoxyphenyl)phenyl]carbonyl}piperazin-1-yl)carbonyl]cyclopropan-1-ol], with ≥ 5 µM; and `COc1c(F)cccc1-c1ccc(C(=O)N2CCN(C(=O)C3(O)CC3)CC2)cc1` [1-[(4-{[4-(3-fluoro-2-methoxyphenyl)phenyl]carbonyl}piperazin-1-yl)carbonyl]cyclopropan-1-ol], with ≥ 5 µM.
As for `COc1cnccc1-c1ccc(C(=O)N2CCN(C(=O)C3(O)CC3)CC2)cc1` [1-[(4-{[4-(3-methoxypyridin-4-yl)phenyl]carbonyl}piperazin-1-yl)carbonyl]cyclopropan-1-ol], the IC50 is ≥ 5 µM.
On the same count and under the same terms, then `Cc1cccc(-c2ccc(C(=O)N3CCN(C(=O)C4(O)CC4)CC3)cc2)c1` [1-[(4-{[4-(3-methylphenyl)phenyl]carbonyl}piperazin-1-yl)carbonyl]cyclopropan-1-ol], with ≥ 5 µM.
On the same count and under the same terms, next, `COc1cc(F)c(F)cc1-c1ccc(C(=O)N2CCN(C(=O)C3(O)CC3)CC2)cc1` [1-[(4-{[4-(4,5-difluoro-2-methoxyphenyl)phenyl]carbonyl}piperazin-1-yl)carbonyl]cyclopropan-1-ol]: ≥ 5 µM; `Cc1ccc(-c2ccc(C(=O)N3CCN(C(=O)C4(O)CC4)CC3)cc2)cc1` [1-[(4-{[4-(4-methylphenyl)phenyl]carbonyl}piperazin-1-yl)carbonyl]cyclopropan-1-ol]: ≥ 5 µM.
On to `Cc1ccc(F)cc1-c1ccc(C(=O)N2CCN(C(=O)C3(O)CC3)CC2)cc1` [1-[(4-{[4-(5-fluoro-2-methylphenyl)phenyl]carbonyl}piperazin-1-yl)carbonyl]cyclopropan-1-ol], for which the IC50 was ≥ 5 µM.
Same read-out and setting: next, `O=C(c1ccc(-c2cncc(F)c2)cc1)N1CCN(C(=O)C2(O)CC2)CC1` [1-[(4-{[4-(5-fluoropyridin-3-yl)phenyl]carbonyl}piperazin-1-yl)carbonyl]cyclopropan-1-ol]: ≥ 5 µM.
Still for that read-out and setting: then `Cc1ccc(-c2ccc(C(=O)N3CCN(C(=O)C4(O)CC4)CC3)cc2)cn1` [1-[(4-{[4-(6-methylpyridin-3-yl)phenyl]carbonyl}piperazin-1-yl)carbonyl]cyclopropan-1-ol], with ≥ 5 µM.

For the origin of these results see patent US10457655B2, “Compounds and compositions for inhibition of FASN” (FORMA Therapeutics, Inc., priority 2013, dated 2019).
